In patent EP1500662A2, “Stabilizing peptides” (CORNELL RESEARCH FOUNDATION, INC., priority 2003, dated 2005):

Legend:
Assay type in all cases: cell-based
HIV-1 DJ258 = tested on: HIV-1 DJ258
Procedure: (§1) PBMC Infectivity Assay. PBMC were isolated from healthy blood donors by Ficoll-Hypaque centrifugation and then stimulated for 2-3 days with phytohemagglutinin (5 µg/ml) and interleukin-2 (100 U/ml). The inhibition assay was performed essentially as described previously (Trkola, A., T. Ketas, V. N. KewalRamani, F. Endorf, J. M. Binley, H. Katinger, J. Robinson, D. R. Littman, and J. P. Moore. 1998. Neutralization sensitivity of human immunodeficiency virus type 1 primary isolates to antibodies and CD4-based reagents is independent of co-receptor usage. J. Virol. 72:1876-1885; Trkola, A., W. A. Paxton, S. P. Monard, J. A. Hoxie, M. A. Siani, D. A. Thompson, L. Wu, C. R. Mackay, R. Horuk, and J. P. Moore. 1998. Genetic subtype-independent inhibition of human immunodeficiency virus type 1 replication by CC and CXC chemokines. J. Virol. 72:396-404).
(§2) Briefly, the virus inoculum was adjusted to 400-1,000 TCID50/ml in assay medium (RPMI 1640, 10% FCS, 100 U of interleukin-2 per ml, glutamine, and peptides), and 50 µl aliquots were incubated with serial dilutions of the peptide inhibitors (50 µl) for 1 h at 37 °C. […] RBMC (4 x 10^5 in 100 µl of medium) were then added. The final concentration of virus in the cultures was 20-50 TCID50/well, corresponding to 100-250 TCID50/ml. […] The viral inocula in 50% tissue culture infectious doses (TCID50) were 400-1000/ml.

HIV-1 JFRL = tested on: HIV-1 JFRL
Procedure: as §1, §2

HIV-1 UG270 = tested on: HIV-1 UG270
Procedure: as §1, §2

HIV-1 94ZW103 = tested on: HIV-1 94ZW103
Procedure: as §1, §2

HIV-1 CM.235 = tested on: HIV-1 CM.235
Procedure: as §1, §2

HIV-1 NL4-3 = tested on: HIV-1 NL4-3
Procedure: as §1, §2

HIV-1 Case C 7/86 = tested on: HIV-1 Case C 7/86
Procedure: as §1, §2

Enfuvirtide
IC50 (HIV-1 DJ258): 83 nM | IC50 (HIV-1 JFRL): 9 nM | IC50 (HIV-1 UG270): 257 nM | IC50 (HIV-1 94ZW103): 13 nM | IC50 (HIV-1 CM.235): 79 nM | IC50 (HIV-1 NL4-3): 35 nM | IC50 (HIV-1 Case C 7/86): 4 nM
